Reference: patent US6806230B1, “Pyrimidine derivatives and herbicides containing them” (Kumiai Chemical Industry Co., Ltd., priority 1999, dated 2004)
Where “and” joins values, the source holds several entries; their conditions need not be identical. Equal entries are not always repeated.

Experiments:
barnyard grass (Eo) [1] = assay: Test Example 1: herbicidal effects by flooded paddy field treatment; type: in vivo; set-up: herbicidal effects, Eo (barnyard grass):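 0-5 growth inhibition grade; 5 = over 90%; 4 = 70-90%; 3 = 50-70%; 2 = 30-50%; 1 = 10-30%; 0 = under 10%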; details: for Herbicidal effect index, Eo: dose 100 gai/10a, examined on 21st day after treatment, index 0-5 per Table 44; for herbicidal effects, Eo (barnyard grass): dose 100 g active ingredient per 10 ares, examined on the 21st day after treatment, standards of Table 44;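 for Herbicidal effect index, Eo: 0-5 growth inhibition grade; 5 = over 90%; 4 = 70-90%; 3 = 50-70%; 2 = 30-50%; 1 = 10-30%; 0 = under 10%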
Method in brief: (§1)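 Puddled paddy soil in pots, seeds sown, 3 cm flood. Day after sowing: wettable powder diluted in water, applied dropwise to water surface, 100 g a.i./10 ares. Greenhouse; visual herbicidal rating at day 21 post-treatment.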

monochoria (Mo) [2] = assay: as above; type: in vivo; set-up: herbicidal effects, Mo (monochoria):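 0-5 growth inhibition grade; 5 = over 90%; 4 = 70-90%; 3 = 50-70%; 2 = 30-50%; 1 = 10-30%; 0 = under 10%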; details: for Herbicidal effect index, Mo: dose 100 gai/10a, examined on 21st day after treatment, index 0-5 per Table 44; for herbicidal effects, Mo (monochoria): dose 100 g active ingredient per 10 ares, examined on the 21st day after treatment, standards of Table 44
Method in brief: as §1

barnyard grass (Ec) [3] = assay: Test Example 2: herbicidal effects by upland soil treatment; type: in vivo; set-up: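 0-5 growth inhibition grade; 5 = over 90%; 4 = 70-90%; 3 = 50-70%; 2 = 30-50%; 1 = 10-30%; 0 = under 10%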; details: dose 100 g active ingredient per 10 ares, examined on the 21st day after treatment; for herbicidal effects, Ec (barnyard grass): standards of Table 44
Method in brief: (§2)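 Pre-emergence test: barnyard grass and green foxtail sown in upland soil, then soil surface sprayed with wettable-powder formulation at 100 g active ingredient per 10 ares (100 l per 10 ares). Grown in greenhouse; herbicidal effect scored on a rating scale 21 days after treatment.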

green foxtail (Se) = assay: as above; type: in vivo; details: dose 100 g active ingredient per 10 ares, examined on the 21st day after treatment, standards of Table 44;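 note: 0-5 growth inhibition grade; 5 = over 90%; 4 = 70-90%; 3 = 50-70%; 2 = 30-50%; 1 = 10-30%; 0 = under 10%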
Method in brief: as §2

barnyard grass (Ec) [4] = assay: Test Example 3: herbicidal effects by foliage treatment in upland field; type: in vivo; set-up: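 0-5 growth inhibition grade; 5 = over 90%; 4 = 70-90%; 3 = 50-70%; 2 = 30-50%; 1 = 10-30%; 0 = under 10%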; details: dose 100 g active ingredient per 10 ares, examined on the 14th day after treatment
Method in brief: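 Barnyard grass and green foxtail were grown in upland soil for 2 weeks in a greenhouse. A water-diluted wettable powder was sprayed over the foliage at 100 l per 10 ares, giving 100 g active ingredient per 10 ares. Herbicidal effect was scored on day 14 after treatment.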

barnyard grass (Eo) [5] = assay: Test Example 4: selectivity for a crop plant by flooded paddy field treatment; type: in vivo; set-up: scale not given here; details: for Eo (herbicidal effects, index): dose 25 g active ingredient per 10 ares, examined on the 21st day after treatment; for Eo (herbicidal effect index): barnyard grass, dose 25 gai/10a, 21st day after treatment, index per Table 44
Method in brief: (§3)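 Flooded paddy pots, 3 cm water; weeds sown from seed, rice transplanted at 2nd-leaf stage. Day after: wettable powder diluted in water, applied dropwise to water surface, 25 g a.i./10 a. Greenhouse; herbicidal effect rated at day 21.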

monochoria (Mo) [6] = assay: as above; type: in vivo; set-up: scale not given here; details: for Mo (herbicidal effects, index): dose 25 g active ingredient per 10 ares, examined on the 21st day after treatment; for Mo (herbicidal effect index): monochoria, dose 25 gai/10a, 21st day after treatment, index per Table 44
Method in brief: as §3

rice (Or) = assay: as above; type: in vivo; set-up: scale not given here; details: rice transplanted at second leaf stage; for Or (effect on crop plant rice, index): dose 25 g active ingredient per 10 ares, examined on the 21st day after treatment; for Or (herbicidal effect index on crop): dose 25 gai/10a, 21st day after treatment, index per Table 44
Method in brief: as §3

barnyard grass (Ec) [7] = assay: Test Example 5: selectivity for a crop plant by soil treatment in upland field; type: in vivo; set-up: scale not given here; details: dose 25 gai/10a, 21st day after treatment, index per Table 44
Protocol: (§4) In a 80 cm^2 plastic pot, upland soil was filled, and seeds of barnyard grass (Ec), green foxtail (Se), soybean (G1), wheat (Tr) and corn (Ze) were sown and covered with soil. A wettable powder prepared in accordance with Formulation Example 1 was diluted with water and uniformly applied to the soil surface by a small size spray at a rate of 100 l per 10 ares so that the dose of the active ingredient would be 25 g per 10 ares. Thereafter, cultivation was carried out in a green house, and on the 21st day after the treatment, the herbicidal effects were examined in accordance with the standards of Table 44.

corn (Ze) = assay: as above; type: in vivo; set-up: scale not given here; details: dose 25 gai/10a, 21st day after treatment, index per Table 44
Protocol: as §4

soybean (G1) = assay: as above; type: in vivo; set-up: scale not given here; details: dose 25 gai/10a, 21st day after treatment, index per Table 44
Protocol: as §4

wheat (Tr) = assay: as above; type: in vivo; set-up: scale not given here; details: dose 25 gai/10a, 21st day after treatment, index per Table 44
Protocol: as §4
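Throughout, for Herbicidal effect index, Mo: 0-5 growth inhibition grade; 5 = over 90%; 4 = 70-90%; 3 = 50-70%; 2 = 30-50%; 1 = 10-30%; 0 = under 10%.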

Or (effect on crop plant rice, index) (rice (Or)) | melting point | Structure (SMILES) | Herbicidal effect index, Eo (barnyard grass (Eo) [1]) | Herbicidal effect index, Mo (monochoria (Mo) [2]) | herbicidal effects, Ec (barnyard grass) (barnyard grass (Ec) [3]) | herbicidal effects, Se (green foxtail) (green foxtail (Se)) | Ec (herbicidal effects, index) (barnyard grass (Ec) [4]) | Eo (herbicidal effects, index) (barnyard grass (Eo) [5]) | Mo (herbicidal effects, index) (monochoria (Mo) [6]) | Ec (herbicidal effect index) (barnyard grass (Ec) [7]) | Ze (herbicidal effect index on crop) (corn (Ze)) | Gl (herbicidal effect index on crop) (soybean (G1)) | Tr (herbicidal effect index on crop) (wheat (Tr)) | herbicidal effects, Eo (barnyard grass) (barnyard grass (Eo) [1]) | herbicidal effects, Mo (monochoria) (monochoria (Mo) [2]) | Ec (herbicidal effects, index) (barnyard grass (Ec) [3]) | Eo (herbicidal effect index) (barnyard grass (Eo) [5]) | Mo (herbicidal effect index) (monochoria (Mo) [6]) | Or (herbicidal effect index on crop) (rice (Or))
1 | – | CCN(C(=O)Cc1ccc(C)cc1)C(c1cncnc1C(F)(F)F)C(C)C (racemic) [Compound 1-61] | 5 | 5 | 5 | 5 | 4 | 5 | 5 | 5 | 0 | 1 | 3 | – | – | – | – | – | –
0 | – | CC(C)C(c1cncnc1C(F)(F)F)N(C(=O)Cc1ccc(Cl)cc1)C1CC1 (racemic) [Compound 1-81] | 5 | 5 | 5 | 5 | 4 | 5 | 5 | 4 | 0 | 0 | 1 | – | – | – | – | – | –
1 | – | CCN(C(=O)Cc1ccc(C#N)cc1)C(c1cncnc1C(F)(F)F)C(C)C (racemic) [Compound 1-98] | 5 | 5 | 5 | 5 | 4 | 5 | 5 | 4 | 1 | 0 | 1 | – | – | – | – | – | –
– | 106 to 109 °C | CC(C)C(c1cncnc1C(F)(F)F)N(C)C(=O)Cc1ccccc1 (stereo not drawn) [Compound 1-8, N-methyl-N-[2-methyl-1-(4-trifluoromethylpyrimidin-5-yl)propyl]phenylacetamide] | 5 | 5 | 5 | 5 | 5 | – | – | – | – | – | – | – | – | – | – | – | –
– | 142 to 145 °C | COCN(C(=O)Cc1ccc(Cl)cc1)C(c1cncnc1C(F)(F)F)C(C)C (stereo not drawn) [Compound 1-105, N-methoxymethyl-N-[2-methyl-1-(4-trifluoromethylpyrimidin-5-yl)propyl]-4-chlorophenylacetamide] | 5 | 5 | 5 | 5 | – | – | – | – | – | – | – | – | – | – | – | – | –
– | 104 to 105 °C | CC(C)C(c1cncnc1C(F)(F)F)N(C)C(=O)N(C)c1ccccc1 (stereo not drawn) [Compound 1-424, 1,3-dimethyl-1-[2-methyl-1-(4-trifluoromethyl-pyrimidin-5-yl)-propyl]-3-phenylurea] | – | – | – | – | 4 | – | – | – | – | – | – | 5 | 5 | 5 | – | – | –
– | 95 to 98 °C and 95 to 96 °C | CC(C)C(c1cncnc1C(F)(F)F)N(C)C(=O)N(C)Cc1ccc(Cl)cc1 (stereo not drawn) [Compound 1-532, 1-(4-chlorobenzyl)-1,3-dimethyl-3-[2-methyl-1-(4-trifluoromethyl-pyrimidin-5-yl)-propyl]-urea] | – | – | – | – | 5 | – | – | – | – | – | – | 5 | 5 | 5 | 5 | 5 | 1

More lines, now with the values behind:

Structure (SMILES) | Or (effect on crop plant rice, index) (rice (Or)) | melting point | Herbicidal effect index, Eo (barnyard grass (Eo) [1]) | Herbicidal effect index, Mo (monochoria (Mo) [2]) | herbicidal effects, Ec (barnyard grass) (barnyard grass (Ec) [3]) | herbicidal effects, Se (green foxtail) (green foxtail (Se)) | Ec (herbicidal effects, index) (barnyard grass (Ec) [4]) | Eo (herbicidal effects, index) (barnyard grass (Eo) [5]) | Mo (herbicidal effects, index) (monochoria (Mo) [6]) | Ec (herbicidal effect index) (barnyard grass (Ec) [7]) | Ze (herbicidal effect index on crop) (corn (Ze)) | Gl (herbicidal effect index on crop) (soybean (G1)) | Tr (herbicidal effect index on crop) (wheat (Tr)) | herbicidal effects, Eo (barnyard grass) (barnyard grass (Eo) [1]) | herbicidal effects, Mo (monochoria) (monochoria (Mo) [2]) | Ec (herbicidal effects, index) (barnyard grass (Ec) [3]) | Eo (herbicidal effect index) (barnyard grass (Eo) [5]) | Mo (herbicidal effect index) (monochoria (Mo) [6]) | Or (herbicidal effect index on crop) (rice (Or))
Cc1ccc(CC(=O)N(C)C(c2cncnc2C(F)(F)F)C(C)(C)C)cc1 (racemic) [Compound 1-55] | 1 | – | 5 | 5 | 5 | 5 | 4 | 5 | 5 | 5 | 0 | 1 | 1 | – | – | – | – | – | –
CC(C)C(c1cncnc1C1CC1)N(C)C(=O)Cc1ccc(Cl)cc1 (racemic) [Compound 1-78] | 1 | – | 5 | 5 | 5 | 5 | 5 | 5 | 5 | 5 | 0 | 0 | 1 | – | – | – | – | – | –
CC(C)C(c1cncnc1C(F)(F)F)N(C(=O)Cc1ccc(F)cc1)C1CC1 (racemic) [Compound 1-83] | 1 | – | 5 | 5 | 5 | 5 | 5 | 5 | 5 | 5 | 1 | 1 | 2 | – | – | – | – | – | –
Cc1ccc(CC(=O)N(C)C(c2cncnc2C)C(C)C)cc1 (racemic) [Compound 1-89] | 0 | – | 5 | 5 | 5 | 5 | 5 | 5 | 5 | 4 | 2 | 0 | 2 | – | – | – | – | – | –
CC(C(=O)N(C)C(c1cncnc1C(=O)O)C(C)C)c1ccc(Cl)cc1 (single isomer, unassigned) [Compound 1-718, 5-(1-{[2-(4-chlorophenyl)-propionyl]methylamino}-2-methylpropyl)-pyrimidine-4-carboxylic acid] | – | 168 to 170 °C | – | – | – | – | – | – | – | – | – | – | – | – | – | – | – | – | –
CC(C)C(c1cncnc1C(F)(F)F)N(C)C(=S)Cc1ccccc1 (stereo not drawn) [Compound 1-142, N-methyl-N-[2-methyl-1-(4-trifluoromethylpyrimidin-5-yl)propyl]phenylthioacetamide] | – | 93 to 94 °C | – | – | 5 | 5 | 4 | – | – | – | – | – | – | 5 | 5 | – | – | – | –
CC(C)C(c1cncnc1C=NO)N(C)C(=O)Cc1ccccc1 (stereo not drawn) [Compound 1-500, N-[1-(4-hydroxyiminomethylpyrimidin-5-yl)-2-methylpropyl]-N-methylphenylacetamide] | – | 171 to 172 °C | – | – | – | – | – | – | – | – | – | – | – | 5 | 5 | – | – | – | –
CC(C)C(c1cncnc1C#N)N(C)C(=O)Cc1ccccc1 (stereo not drawn) [Compound 1-504, N-[1-(4-cyanopyrimidin-5-yl)-2-methylpropyl]-N-methylphenylacetamide] | – | 80 to 81 °C | – | – | – | – | 5 | – | – | – | – | – | – | 5 | 5 | 5 | 5 | 5 | 1
CC(C)C(c1cncnc1C(F)(F)F)N(C)C(=O)Cc1ccccn1 (stereo not drawn) [Compound 2-3, N-methyl-N-[2-methyl-1-(4-trifluoromethylpyrimidin-5-yl)propyl]-2-pyridylacetamide] | – | 99 to 100 °C | – | – | – | – | – | – | – | – | – | – | – | 5 | 5 | – | – | – | –
